From ChEMBL document CHEMBL1201862, “PubChem BioAssay data set” (2004)
Activity calls are given as the source filed them.

Assays:
[1] = molecular target: T1, Estrogen receptor (Homo sapiens, UniProt P03372); assay: ERα coactivator recruitment enhancers – biochemical, TR-FRET, ERα LBD, dose response (AID 737)
T1 sequence (P03372 whole entry): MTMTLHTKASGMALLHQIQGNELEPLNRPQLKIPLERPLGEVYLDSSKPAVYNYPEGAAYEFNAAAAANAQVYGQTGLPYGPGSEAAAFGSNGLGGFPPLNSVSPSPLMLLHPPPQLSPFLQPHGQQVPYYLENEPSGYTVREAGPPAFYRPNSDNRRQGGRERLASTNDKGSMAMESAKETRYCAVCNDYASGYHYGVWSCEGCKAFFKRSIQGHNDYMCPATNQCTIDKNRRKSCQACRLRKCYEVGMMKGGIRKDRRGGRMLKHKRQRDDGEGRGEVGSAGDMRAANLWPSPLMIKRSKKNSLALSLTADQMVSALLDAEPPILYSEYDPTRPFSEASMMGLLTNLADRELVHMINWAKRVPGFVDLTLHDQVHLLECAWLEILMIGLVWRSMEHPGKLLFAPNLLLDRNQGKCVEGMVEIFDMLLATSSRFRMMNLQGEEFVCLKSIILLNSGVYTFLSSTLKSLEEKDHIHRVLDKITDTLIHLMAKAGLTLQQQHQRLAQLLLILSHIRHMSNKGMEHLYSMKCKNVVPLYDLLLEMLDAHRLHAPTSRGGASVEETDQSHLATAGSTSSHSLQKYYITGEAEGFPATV

[2] = toxicity toward HepG2 liver cells – cell-based, plate reader, cherry-pick, antagonist series, cytotoxicity control, dose response (AID 743416); type: functional
[3] = blockers of bursicon-stimulated LGR2 cAMP reporter – cell-based, HEK293, CRE-luciferase reporter, cherry pick, set 2, dose response (AID 743343); type: functional;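 further: transfected cells were stimulated with diluted bursicon conditioned medium after compound addition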
[4] = blockade of melanocortin 4 receptor signaling – cell-based, plate reader, cherry pick, counter-screen for LGR2 antagonist project, dose response (AID 743444); type: functional;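 further: transfected HEK 293 cells stimulated with alpha-MSH peptide; potency of inhibitors of the alpha-MSH evoked signal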
[5] = viability loss in HEK293 cells – cell-based, plate reader, cherry-picked samples, cytotoxicity control, dose response (AID 743446); type: functional
[6] = molecular target: G2/mitotic-specific cyclin-B1 (Homo sapiens, UniProt P14635); assay: Counterscreen assay for inhibitors of Wee1 degradation: dose response cell-based assay to identify inhibitors of cyclin B degradation. [Related pubchem assays: 1410, 1321 ]; type: functional
Chain of G2/mitotic-specific cyclin-B1 (P14635 whole entry): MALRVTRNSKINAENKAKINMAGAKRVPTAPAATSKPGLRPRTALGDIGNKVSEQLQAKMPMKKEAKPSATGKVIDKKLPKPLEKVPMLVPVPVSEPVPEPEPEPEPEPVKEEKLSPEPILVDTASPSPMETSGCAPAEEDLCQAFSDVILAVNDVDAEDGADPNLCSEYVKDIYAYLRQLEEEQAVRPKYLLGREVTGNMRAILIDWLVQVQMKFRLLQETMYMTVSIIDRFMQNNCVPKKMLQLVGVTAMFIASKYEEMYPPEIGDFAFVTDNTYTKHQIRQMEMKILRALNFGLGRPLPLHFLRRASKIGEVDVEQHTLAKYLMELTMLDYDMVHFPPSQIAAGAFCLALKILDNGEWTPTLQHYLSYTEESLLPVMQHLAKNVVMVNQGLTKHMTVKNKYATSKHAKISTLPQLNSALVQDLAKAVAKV

[7] = luciferase reporter signal suppression in cells – H4 neuroglioma cells, luminescence, dose response (AID 1990); type: functional, cell-based
[8] = molecular target: Wee1-like protein kinase (Homo sapiens, UniProt P30291); assay: Dose Response Cell-based Assay for Inhibitors of Wee1 Degradation. [Related pubchem assays: 1410, 1321 ]; type: functional
Chain of Wee1-like protein kinase (P30291 whole entry): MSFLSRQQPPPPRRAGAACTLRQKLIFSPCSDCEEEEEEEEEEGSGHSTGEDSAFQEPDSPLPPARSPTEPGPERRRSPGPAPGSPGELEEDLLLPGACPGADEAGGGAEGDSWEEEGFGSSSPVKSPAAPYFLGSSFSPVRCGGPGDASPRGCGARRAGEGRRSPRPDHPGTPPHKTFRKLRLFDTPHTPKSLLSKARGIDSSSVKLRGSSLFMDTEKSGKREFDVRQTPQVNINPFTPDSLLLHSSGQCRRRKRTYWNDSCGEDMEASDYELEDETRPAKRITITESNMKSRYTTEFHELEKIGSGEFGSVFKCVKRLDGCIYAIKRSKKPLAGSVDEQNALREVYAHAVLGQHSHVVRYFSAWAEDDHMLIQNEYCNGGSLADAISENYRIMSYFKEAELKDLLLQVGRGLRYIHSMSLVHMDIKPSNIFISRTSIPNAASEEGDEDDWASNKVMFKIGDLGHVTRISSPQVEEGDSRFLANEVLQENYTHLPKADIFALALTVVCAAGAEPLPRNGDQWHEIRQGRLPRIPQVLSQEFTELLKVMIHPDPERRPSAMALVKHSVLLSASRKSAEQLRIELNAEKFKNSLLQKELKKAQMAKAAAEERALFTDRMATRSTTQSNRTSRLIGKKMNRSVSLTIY

[9] = Luminescence Cell-Based Dose Response HTS to Identify Inhibitors of 5'UTR Stem-Loop Driven Prion Protein mRNA Translation in H4 Neuroglioblastoma Cells. [Related pubchem assays: 1827 (Project Summary), 1813 (Primary HTS)]; type: functional
[10] = alpha-synuclein stem-loop luciferase translation blockers – H4 neuroglioma cells, luminescence, confirmation (AID 1988); type: functional, cell-based
[11] = molecular target: T2, Cysteine protease ATG4B (Homo sapiens, UniProt Q9Y4P1); type: functional;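 further: Fluorescence-based dose-response confirmation assay measuring inhibition of ATG4B activity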
T2 sequence (Q9Y4P1 whole entry): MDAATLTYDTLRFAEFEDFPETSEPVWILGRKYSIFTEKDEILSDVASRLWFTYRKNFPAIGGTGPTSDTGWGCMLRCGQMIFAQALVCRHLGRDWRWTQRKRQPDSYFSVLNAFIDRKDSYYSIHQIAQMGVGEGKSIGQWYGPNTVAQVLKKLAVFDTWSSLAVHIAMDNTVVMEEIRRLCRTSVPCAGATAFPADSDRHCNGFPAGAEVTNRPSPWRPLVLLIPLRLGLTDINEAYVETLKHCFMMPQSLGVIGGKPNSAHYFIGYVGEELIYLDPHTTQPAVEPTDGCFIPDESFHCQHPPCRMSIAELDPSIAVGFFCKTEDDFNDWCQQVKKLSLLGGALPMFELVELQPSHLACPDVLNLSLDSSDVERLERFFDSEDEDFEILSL

[12] = molecular target: Phospholipase A2 (Homo sapiens, UniProt P04054); type: functional;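 further: confirmatory dose-response counterscreen on phospholipase A2, testing hits that came from an ultra-high-throughput screen for ATG4B inhibitors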
Chain of Phospholipase A2 (P04054 whole entry): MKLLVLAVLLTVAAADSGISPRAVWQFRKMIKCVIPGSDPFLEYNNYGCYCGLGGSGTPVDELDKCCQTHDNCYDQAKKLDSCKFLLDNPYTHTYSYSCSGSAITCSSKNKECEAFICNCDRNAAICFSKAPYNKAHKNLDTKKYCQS

[13] = molecular target: Aspartyl aminopeptidase (Plasmodium falciparum 3D7, UniProt Q8I2J3)
Chain of Aspartyl aminopeptidase (Q8I2J3 whole entry): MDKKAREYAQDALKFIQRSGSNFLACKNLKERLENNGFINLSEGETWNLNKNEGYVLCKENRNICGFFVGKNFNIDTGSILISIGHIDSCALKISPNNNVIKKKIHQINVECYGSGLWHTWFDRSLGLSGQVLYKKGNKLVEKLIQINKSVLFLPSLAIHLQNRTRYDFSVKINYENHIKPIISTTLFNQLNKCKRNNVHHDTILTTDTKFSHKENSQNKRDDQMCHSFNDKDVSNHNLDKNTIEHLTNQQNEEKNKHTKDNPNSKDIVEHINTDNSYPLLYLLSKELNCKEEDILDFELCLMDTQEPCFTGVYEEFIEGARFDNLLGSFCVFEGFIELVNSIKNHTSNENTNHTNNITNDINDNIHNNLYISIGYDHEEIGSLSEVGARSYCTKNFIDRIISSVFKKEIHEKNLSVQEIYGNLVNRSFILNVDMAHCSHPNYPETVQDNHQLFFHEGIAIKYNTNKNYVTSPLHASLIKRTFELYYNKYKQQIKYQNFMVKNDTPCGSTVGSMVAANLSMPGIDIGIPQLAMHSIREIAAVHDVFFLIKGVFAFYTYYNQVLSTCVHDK

[14] = molecular target: Procathepsin L (Homo sapiens, UniProt P07711)
Chain of Procathepsin L (P07711 whole entry): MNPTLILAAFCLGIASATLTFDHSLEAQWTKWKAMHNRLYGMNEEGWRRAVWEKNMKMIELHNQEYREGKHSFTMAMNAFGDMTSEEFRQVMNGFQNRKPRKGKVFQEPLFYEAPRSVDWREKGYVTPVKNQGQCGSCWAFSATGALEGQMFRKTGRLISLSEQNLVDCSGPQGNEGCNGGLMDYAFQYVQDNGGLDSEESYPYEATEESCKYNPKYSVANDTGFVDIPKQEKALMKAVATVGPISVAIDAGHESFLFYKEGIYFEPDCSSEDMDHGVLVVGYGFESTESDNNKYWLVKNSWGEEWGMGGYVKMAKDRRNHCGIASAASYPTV

[15] = molecular target: Cytochrome P450 3A4 (Homo sapiens, UniProt P08684); conditions: Potency;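 further: confirmatory qHTS run detecting inhibitors and substrates of CYP3A4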
Chain of Cytochrome P450 3A4 (P08684 whole entry): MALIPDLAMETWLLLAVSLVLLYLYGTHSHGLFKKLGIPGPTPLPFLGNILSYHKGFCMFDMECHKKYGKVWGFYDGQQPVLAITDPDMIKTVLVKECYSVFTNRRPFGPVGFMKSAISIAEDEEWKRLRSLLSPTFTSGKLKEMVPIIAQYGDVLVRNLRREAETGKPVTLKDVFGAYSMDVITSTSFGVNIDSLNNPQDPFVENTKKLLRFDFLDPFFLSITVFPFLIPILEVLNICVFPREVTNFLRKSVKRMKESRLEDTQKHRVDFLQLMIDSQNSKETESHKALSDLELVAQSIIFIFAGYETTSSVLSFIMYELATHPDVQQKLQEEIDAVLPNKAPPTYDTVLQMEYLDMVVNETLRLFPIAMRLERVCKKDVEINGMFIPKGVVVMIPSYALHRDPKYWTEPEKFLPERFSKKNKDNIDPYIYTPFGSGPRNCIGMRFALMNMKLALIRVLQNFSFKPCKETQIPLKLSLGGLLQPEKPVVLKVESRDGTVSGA

C1COCCO1.O=C(Nc1nc(-c2ccc(S(=O)(=O)N3CCOCC3)cc2)cs1)c1ccccc1
EC50 [1]: 15.1 µM (active) | AC50 [2]: 36.7 µM (active) | AC50 [3]: 42 µM (active) | AC50 [4]: 44.3 µM (active) | AC50 [5]: > 52 µM (inactive)

CCCC1=Nc2cc(C(=O)NCc3ccco3)ccc2Sc2ccccc21
EC50 [6]: > 49.7 µM (not active) | EC50 [7]: 11.1 µM (inconclusive) | EC50 [8]: > 49.7 µM (not active) | EC50 [9]: 11.4 µM (active) | EC50 [10]: 8.6 µM (active) | IC50 [11]: 15.2 µM (active) | IC50 [12]: 6.93 µM (active)

CC1(C)CC(=O)c2c(oc3cc(O)c(O)cc23)C1
IC50 [13]: 1.25 µM (active) | IC50 [14]: > 59.6 µM (not active) | AC50 [15]: 31.6 µM (inconclusive)
